From patent US12391685B2, “Inhibitors of RNA-guided nuclease target binding and uses thereof” (THE BROAD INSTITUTE, INC., priority 2018, dated 2025)
Where two headings read alike, the source gives them in different places.

Tests used:
Type in all cases: cell-based, S. pyogenes
[1] = biological target: T1, dCas9-based transcription-activation complex (Streptococcus pyogenes serotype M1, UniProt Q99ZW2, D10A, form not given); experiment: dCas9-based transcription activation of HBG1 in HEK293FT cells (RT-qPCR); conditions: for EC50: read-out: EC50, inhibition of the transcription activation complex
T1 construct: "dSpCas9|Feng Zhang lab|NA"; The MS2-p65-HSF1(-GFP) effector is a separate chain recruited through MS2 aptamers in the sgRNA
Method: Transcription activation experiments and quantitative RT-PCR analyses. HEK293FT cells were maintained in high glucose DMEM with glutamax (Life Technologies) and supplemented with 10% FBS (Life Technologies), 1% penicillin-streptomycin (Life Technologies) and 1 mM sodium pyruvate (Life Technologies). For transcription activation experiments, 20,000 cells/well were plated in a poly D-lysine-coated 96-well plate. The cells were transiently transfected with a 1:1:1 mass ratio of the dCas9 plasmid, MS2-P65-HSF1 effector plasmid and the sgRNA plasmid targeting the HBG1 gene or an RFP control plasmid. A total of 0.3 μg plasmid DNA was transfected using Lipofectamine 2000 (Life Technologies) according to manufacturer's protocol. Immediately after transfection, the cells were treated with an appropriate dose of the small-molecule inhibitors. A DMSO solution of compound (20 mM) was resuspended in the 10% FBS containing growth media and thoroughly mixedbefore adding to the cells. After 48 h the cells were lysed and 5 μL of the cell lysate was used to perform reverse transcription using the RevertAid RT Reverse Transcription Kit (Thermo Fischer Scientific) as described by Joung J. et al. qPCR reactions were performed to quantify RNA expression using the TaqMan probes (Life Technologies, HBG1/HBG2: Hs00361131_g1, ACTB: Hs01060665_g1) and TaqMan Fast Advanced Master Mix (Life Technologies) in 5 μL multiplexed reactions and 384-well format using the LightCycler 480 Instrument II (Roche). For each sample, four technical replicates were performed. Data were analyzed using the LightCycler 480 software (Roche) by the ΔΔCt method: Ct values for the gene of interest (HBG1) were normalized to Ct values for the housekeeping gene (ACTB), and fold-changes in the expression level of gene of interest were normalized to RFP-transfected control. The data is reported as mean±S.E.M. for technical replicates.

SpCas9 [2] = biological target: T2, SpCas9 (Streptococcus pyogenes serotype M1, UniProt Q99ZW2); experiment: eGFP-disruption assay in U2OS.eGFP.PEST cells; parameters: host or cells: U2OS.eGFP.PEST; conditions: for inhibition at 15 µM / Average Inhibition activity / Inhibition activity Rep 1 / Inhibition activity Rep 2: screen of structural analogs of BRD7087, 15 μM compound, U2OS.eGFP.PEST cells
Method: SpCas9 nuclease activity in eGFP-disruption assay. Approximately 200,000 U2OS.eGFP-PEST cells were nucleofected following two different methods either by nucleofecting plasmids or RNP using the SE Cell Line 4D-Nucleofector™ X Kit (Lonza) according to the manufacturer's protocol. In the plasmid nucleofection method, cells were nucleofected either with 440 ng of SpCas9 (Addgene Plasmid #43861) or 400 ng of SpCas9 along with 40 ng of sgRNA (pFYF1320 eGFP Site #1, Addgene Plasmid #47511). Cells nucleofected only with SpCas9-expressing plasmid were used as the transfection control. In the RNP nucleofection method, either […] SpCas9 or 20 pmol preformed SpCas9:gRNA (eGFP Site #1) complex were nucleofected. Approximately 20,000 transfected cells/well were plated in 4 replicates in a 96-well plate (Corning® 3904). Cells were incubated with the indicated amount of compound or DMSO for 24 h post transfection. A DMSO solution of compound (20 mM) was resuspended in the 10% FBS containing growth media and thoroughly mixed before adding to the cells. Cells were then fixed using 4% paraformaldehyde and imaged with the HCS NuclearMask™ Blue Stain (Life Technologies) as the nuclear counter-staining agent. Imaging was performed with an ImageXpress Micro automated microscope (Molecular Devices) at 10× magnification under three excitation channels (blue, green and red) acquiring nine sites per well. Images were analyzed using MetaXpress software and data were plotted using GraphPad Prism 6.
The Z′-value was calculated using the equation (1), where σ1 and σ2 are the standard deviations of DMSO control and SpCas9:gRNA control respectively. μ1 and μ2 are the mean % GFP^− cell population for DMSO control and SpCas9:gRNA control, respectively.

SpCas9 [3] = biological target: T2, SpCas9; experiment: HiBiT assay in U2OS.eGFP.PEST cells; parameters: host or cells: U2OS.eGFP.PEST; conditions: 24 h
Method: HiBiT assay. For SpCas9 expression in cells, the previously described JDS246 plasmid was used (Kleinstiver et al., 2015b). ssODN donor DNA template with the HiBiT tag was purchased as single-stranded Ultramer DNA Oligonucleotides (IDT) and resuspended to 40 μM in nuclease-free water. For the assay, 2×10^5 cells were co-transfected with 300 ng Cas9 plasmid, 75 ng sgRNA plasmid and 100 ng ssODN using the DN-100 program of Lonza 4D nucleofector according to the manufacturer's protocols. For negative controls, either the sgRNA plasmid or the ssODN was omitted. 20,000 transfected cells were plated in each well of a 96-well plate (Corning 3904). Immediately after transfection, cells were treated with varying concentrations of BRD0539 or BRD3433 and incubated at 37° C. with 5% CO2. 24 h after transfection, the cells were washed once with PBS and kept in 80 μL PBS. An equal volume of the Nano-Glo HiBiT Lytic Reagent (Promega N3030), consisting of Nano-Glo HiBiT Lytic Buffer, Nano-Glo HiBiT Lytic Substrate, and LgBiT Protein, was added according to the manufacturer's protocol, and cells were incubated for 10 min at ambient temperature with shaking at 600 rpm (Schwinn et al., 2018a). The cells were then incubated for an additional 10 min without shaking at room temperature to allow equilibration of the HiBiT and LgBiT in the lysate. The lysate was then transferred to a white plate (Corning 3990) and luminescence was measured using an Envision plate reader (Perkin-Elmer) with 1 s of integration time.

[4] = 24 h, read-out: Average Inhibition activity
[5] = 24 h, read-out: Inhibition activity Rep 1
[6] = 24 h, read-out: Inhibition activity Rep 2

T2 sequence (Q99ZW2 whole entry): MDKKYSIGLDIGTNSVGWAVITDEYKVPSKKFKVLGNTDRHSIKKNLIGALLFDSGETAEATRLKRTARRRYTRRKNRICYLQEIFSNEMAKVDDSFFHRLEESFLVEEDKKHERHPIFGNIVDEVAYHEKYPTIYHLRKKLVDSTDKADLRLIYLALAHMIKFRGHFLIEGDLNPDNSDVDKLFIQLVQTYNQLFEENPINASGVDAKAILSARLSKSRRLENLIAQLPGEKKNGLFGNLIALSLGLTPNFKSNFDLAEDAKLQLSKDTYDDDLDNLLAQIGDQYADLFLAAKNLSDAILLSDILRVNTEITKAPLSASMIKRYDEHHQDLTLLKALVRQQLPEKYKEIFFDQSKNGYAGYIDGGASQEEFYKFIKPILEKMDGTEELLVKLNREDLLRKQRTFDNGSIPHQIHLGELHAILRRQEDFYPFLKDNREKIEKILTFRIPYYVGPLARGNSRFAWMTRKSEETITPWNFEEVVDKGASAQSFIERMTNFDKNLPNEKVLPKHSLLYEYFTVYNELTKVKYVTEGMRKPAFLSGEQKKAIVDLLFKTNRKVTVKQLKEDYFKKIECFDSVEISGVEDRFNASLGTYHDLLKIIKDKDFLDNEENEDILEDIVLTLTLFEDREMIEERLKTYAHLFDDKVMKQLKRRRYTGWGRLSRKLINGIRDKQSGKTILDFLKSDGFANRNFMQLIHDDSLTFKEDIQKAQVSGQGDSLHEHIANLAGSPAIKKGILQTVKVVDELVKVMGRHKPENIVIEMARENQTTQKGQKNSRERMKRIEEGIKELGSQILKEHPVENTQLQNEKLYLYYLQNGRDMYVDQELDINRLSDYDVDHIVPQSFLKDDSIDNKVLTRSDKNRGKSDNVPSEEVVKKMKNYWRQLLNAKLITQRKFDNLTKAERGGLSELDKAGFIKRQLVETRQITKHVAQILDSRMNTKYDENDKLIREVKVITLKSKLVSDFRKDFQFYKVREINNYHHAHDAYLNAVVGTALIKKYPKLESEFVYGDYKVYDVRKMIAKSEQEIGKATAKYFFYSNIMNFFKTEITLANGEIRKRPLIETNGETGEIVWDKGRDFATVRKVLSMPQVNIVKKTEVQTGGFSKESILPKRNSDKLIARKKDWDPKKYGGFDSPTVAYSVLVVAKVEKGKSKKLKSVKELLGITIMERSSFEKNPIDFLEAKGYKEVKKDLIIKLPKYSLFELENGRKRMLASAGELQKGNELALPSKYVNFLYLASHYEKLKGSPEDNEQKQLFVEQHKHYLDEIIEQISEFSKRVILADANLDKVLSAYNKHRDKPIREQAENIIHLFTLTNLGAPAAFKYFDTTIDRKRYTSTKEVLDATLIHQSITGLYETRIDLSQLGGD
T1 sequence (Q99ZW2 whole entry, form open, one chain of several, change not shown): as the sequence (Q99ZW2 whole entry) above

Row | SMILES | Average Inhibition activity (SpCas9 [2]; 24 h) | Inhibition activity Rep 1 (SpCas9 [2]; 24 h) | Inhibition activity Rep 2 (SpCas9 [2]; 24 h) | further results
1 | CN1c2ccc(C#Cc3cccnc3)cc2[C@H]2[C@H](CCN2C(=O)Nc2cc(F)ccc2F)[C@@H]1CO [BRD0048, (3aS,4R,9bR)—N-(2,5-difluorophenyl)-4-(hydroxymethyl)-5-methyl-8-(pyridin-3-ylethynyl)-2,3,3a,4,5,9b-hexahydro-1H-pyrrolo[3,2-c]quinoline-1-carboxamide] |  |  |  | EC50 [1]: 9 µM; inhibition at 15 µM (SpCas9 [2]; [4]): 76.4%; inhibition at 15 µM (SpCas9 [2]; [5]): 84.1%; inhibition at 15 µM (SpCas9 [2]; [6]): 68.7%
2 | COc1cccc(-c2ccc3c(c2)[C@H]2[C@H](CCN2C(=O)Cc2ccncc2)[C@H](CO)N3C)c1 [BRD3433, 1-((3aS,4R,9bR)-4-(hydroxymethyl)-8-(3-methoxyphenyl)-5-methyl-2,3,3a,4,5,9b-hexahydro-1H-pyrrolo[3,2-c]quinolin-1-yl)-2-(pyridin-4-yl) ethan-1-one] |  |  |  | EC50 (SpCas9 [2]; EC50, dose-dependent inhibition of SpCas9, U2OS.eGFP.PEST cells, 24 h, tested from 2.8-17.3 μM): 9.3 µM; improvement in potency over BRD7087 (SpCas9 [2]; eGFP-disruption assay): 1.8 fold; EC50 (SpCas9 [2]; eGFP-disruption assay, read-out: apparent EC50): 11 µM; inhibition at 15 µM (SpCas9 [2]; [4]): 78.6%; inhibition at 15 µM (SpCas9 [2]; [5]): 82.2%; inhibition at 15 µM (SpCas9 [2]; [6]): 74.9%; inhibition of SpCas9 in the HiBiT assay (in words) (SpCas9 [3]): dose-dependent inhibition
3 | CN1c2ccc(C#Cc3cccnc3)cc2[C@@H]2[C@@H](CCN2C(=O)C2CCCCC2)[C@H]1CO [BRD20322, Cyclohexyl((3aR,4S,9bS)-4-(hydroxymethyl)-5-methyl-8-(pyridin-3-ylethynyl)-2,3,3a,4,5,9b-hexahydro-1H-pyrrolo[3,2-c]quinolin-1-yl) methanone] |  |  |  | inhibition of transcriptional activation ([1]; 20 μM): 89%; EC50 [1]: 12.2 µM; inhibition at 15 µM (SpCas9 [2]; [4]): 53.5%; inhibition at 15 µM (SpCas9 [2]; [5]): 47.6%; inhibition at 15 µM (SpCas9 [2]; [6]): 59.4%
4 | O=C(C1CCCCC1)N1CC[C@@H]2[C@H](CO)Nc3ccc(C#Cc4ccc(F)cc4)cc3[C@@H]21 [BRD-K72901141] | 49.5 | 53.2 | 45.9 | 
5 | COc1ccccc1NC(=O)N1CC[C@@H]2[C@H]1c1cc(C#Cc3cccc(F)c3)ccc1N(C)[C@@H]2CO [BRD-K77165899] | 53.5 | 47.0 | 59.9 | 
6 | O=C(c1ccc(F)cc1)N1CC[C@@H]2[C@H]1c1cc(C#Cc3ccccc3F)ccc1N[C@@H]2CO [BRD-K79906422] | 51.1 | 51.3 | 50.9 | 
7 | CN1c2ccc(-c3ccccc3F)cc2[C@@H]2[C@@H](CCN2C(=O)NC2CCCCC2)[C@H]1CO [BRD-K80765942] | 50.0 | 50.5 | 49.6 | 
8 | C/C=C/c1ccc2c(c1)[C@H]1[C@H](CCN1C(=O)c1ccc(F)cc1)[C@H](CO)N2 [BRD-K81261525] | 74.3 | 71.3 | 77.4 | 
9 | CN1c2ccc(C#Cc3ccc(F)cc3)cc2[C@@H]2[C@@H](CCN2C(=O)CN2CCOCC2)[C@H]1CO [BRD-K82266131] | 56.9 | 51.7 | 62.1 | 
10 | COc1ccccc1C#Cc1ccc2c(c1)[C@H]1[C@H](CCN1C(=O)c1cccc(F)c1)[C@H](CO)N2 [BRD-K83261893] | 45.7 | 47.1 | 44.3 | 
11 | COc1ccc(S(=O)(=O)N2CC[C@H]3[C@@H](CO)N(C)c4ccc(C#Cc5ccccc5OC)cc4[C@H]32)cc1 [BRD-K83448282] | 45.7 | 46.7 | 44.6 | 
12 | CN(C)C(=O)c1cccc(-c2ccc3c(c2)[C@@H]2[C@@H](CCN2C(=O)c2ccc4c(c2)OCO4)[C@@H](CO)N3)c1 [BRD-K83829793] | 53.1 | 61.0 | 45.2 | 
13 | O=C(C1CCCCC1)N1CC[C@@H]2[C@H]1c1cc(C#Cc3ccc(F)cc3)ccc1N[C@@H]2CO [BRD-K88933335] | 45.7 | 47.8 | 43.7 | 
14 | CN1c2ccc(C#Cc3cccnc3)cc2[C@H]2[C@H](CCN2C(=O)C2CCCCC2)[C@@H]1CO [BRD-K89354425] | 82.0 | 85.4 | 78.7 | 
15 | OC[C@@H]1Nc2ccc(-c3ccccc3)cc2[C@@H]2[C@H]1CCN2Cc1ccc(F)cc1 [BRD-K90247032] | 49.3 | 47.6 | 51.1 | 
16 | O=C(c1ccccc1)N1CC[C@@H]2[C@H]1c1cc(C#CC3CCCCC3)ccc1N[C@@H]2CO [BRD-K92041481] | 68.3 | 57.8 | 78.8 | 
17 | COc1cccc(S(=O)(=O)N2CC[C@H]3[C@@H](CO)N(C)c4ccc(C#Cc5cccnc5)cc4[C@H]32)c1 [BRD-K92333822] | 55.1 | 53.1 | 57.1 | 
18 | O=C(c1cccc(F)c1)N1CC[C@@H]2[C@H](CO)Nc3ccc(-c4ccccc4)cc3[C@@H]21 [BRD-K94204229] | 57.0 | 47.5 | 66.6 | 
19 | CN1c2ccc(-c3ccc(F)cc3)cc2[C@H]2[C@H](CCN2S(=O)(=O)c2cccc(F)c2)[C@@H]1CO [BRD-K98925777] | 49.4 | 53.6 | 45.2 | 
20 | Cc1cccc(S(=O)(=O)N2CCC3C(CO)Nc4ccc(-c5ccccc5F)cc4C32)c1 (centres unmarked) [Compound 4] |  |  |  | decrease of activity with respect to BRD0539 (SpCas9 [2]; structural analogs of BRD0539, R2=a, R1 varied): 47%
